Laboratory results: US8119630B2 (Arrow Therapeutics Limited, priority 2002, dated 2012)
Like-named read-outs stand apart in the source and are kept apart here.

How the values were obtained:
RSV = test: XTT assay, RSV-infected Vero cells; type: cell-based, Respiratory Syncytial Virus (RSV); settings: Vero cells infected with RSV, m.o.i.≈0.2, 6 days at 33° C.
Protocol: Examples 1 to 74 and 83 to 124 were tested using the following protocol.
(§1) The inner 60 wells of 96 well tissue culture plates were seeded with Vero cells at 3×10^4 cells/well (1×10^4 cells/well for toxicity studies) in 100 or 150 μl of medium and incubated at 37° C. overnight or until nearing confluency. For primary screen, 25 μl compounds were added directly to 100 μl medium in single wells to duplicate plates. A third plate was prepared for simultaneous toxicity investigation.
(§2) For follow-up investigation, 70 μl of compound in duplicate wells were added directly to culture medium at 3.2× final concentration and ½ log serially diluted down columns of plate. A duplicate plate was prepared for simultaneous toxicity investigation.
(§3) Cells were infected with 25 μl RSV to give m.o.i.≈0.2. Some 100 μl of sterile distilled water were added to the outer wells of the plate and incubated at 33° C. for 6 days. Some 0.25 μl/ml PMS were added to stock XTT solution, final conc. […]. Then 25 μl warmed XTT/PMS solution were added to each well and incubated for 5 hours at 37° C. Plates were shaken (DynaTech Vari-Shaker) vigorously for 10 mins and allowed to cool for 15 mins before sealing. Absorbance at 450 nm was measured and data analysed using Microsoft Excel software.
Maximum OD450nm reading (uninfected, untreated control cells) corresponded to 100% inhibition. Minimum OD450nm readings (infected control cells) corresponded to 0% inhibition. Log 10 concentration was plotted against OD450nm and IC50 (Table 1) values were calculated from either reading 50% value from graph or using regression analysis.

Vero cells = test: Simultaneous toxicity investigation (XTT), Vero cells; type: cell-based; set-up: unit not given here; settings: for TC50 (2d): Table 2, Examples 83 to 124, 2d; for TC50 (6d): Table 2, Examples 83 to 124, 6d
Protocol: as §1, §2
as §3, with “Some 100 μl of sterile distilled water were added to the outer wells of the plate and incubated at 33° C. for 6 days.” left out

[1] = human respiratory syncytial virus, Vero, 144 h, read-out: XTT IC50 (uM), Table 2, Examples 83 to 124

SMILES	IC50 (RSV; [1]) [µM]	TC50 (2d) (Vero cells)	TC50 (6d) (Vero cells)	IC50 (RSV; Table 2, Examples 83 to 124, read-out: XTT IC50) [µM]
COc1ccc(C(=O)NC2N=C(c3ccccc3F)c3cc(Cl)ccc3NC2=O)cc1 (stereo not drawn) [Example 83, N-[7-Chloro-5-(2-fluoro-phenyl)-2-oxo-2,3-dihydro-1H-benzo[e][1,4]diazepine-3-yl]-4-methoxy-benzamide]	6	>100	32	
O=C(NCc1ccccc1F)NC1N=C(c2ccccc2)c2ccccc2NC1=O (stereo not drawn) [Example 84, 1-(2-Fluoro-benzyl)-3-(2-oxo-5-phenyl-2,3-dihydro-1H-benzo[e][1,4]diazepin-3-yl)-urea]	2	>100	>100	
COc1ccc(CNC(=O)NC2N=C(c3ccccc3)c3ccccc3NC2=O)cc1 (stereo not drawn) [Example 85, 1-(4-Methoxy-benzyl)-3-(2-oxo-5-phenyl-2,3-dihydro-1H-benzo[e][1,4]diazepin-3-yl)-urea]	4	>100	>100	
Cc1cccc(CNC(=O)NC2N=C(c3ccccc3)c3ccccc3NC2=O)c1 (stereo not drawn) [Example 86, 1-(3-Methyl-benzyl)-3-(2-oxo-5-phenyl-2,3-dihydro-1H-benzo[e][1,4]diazepin-3-yl)-urea]	3	>100	100	
O=C(Nc1ccc(C(F)(F)F)cc1)NC1N=C(c2ccccc2)c2ccccc2NC1=O (stereo not drawn) [Example 87, 1-(2-Oxo-5-phenyl-2,3-dihydro-1H-benzo[e][1,4]diazepin-3-yl)-3-(4-trifluoromethyl-phenyl)-urea]	4	50	50	
COc1cc(Cl)ccc1C(=O)NC1N=C(c2ccccc2)c2ccccc2NC1=O (stereo not drawn) [Example 88, 4-Chloro-2-methoxy-N-(2-oxo-5-phenyl-2,3-dihydro-1H-benzo[e][1,4]diazepin-3-yl)-benzamide]	0.3	100	40	
COc1ccc(C(=O)NC2N=C(c3ccccc3)c3ccccc3NC2=O)cc1[N+](=O)[O-] (stereo not drawn) [Example 89, 4-Methoxy-3-nitro-N-(2-oxo-5-phenyl-2,3-dihydro-1H-benzo[e][1,4]diazepin-3-yl)benzamide]	0.8	>100	>100	
COc1cccc(C(=O)NC2N=C(c3ccccc3)c3ccccc3NC2=O)c1[N+](=O)[O-] (stereo not drawn) [Example 90, 3-Methoxy-2-nitro-N-(2-oxo-5-phenyl-2,3-dihydro-1H-benzo[e][1,4]diazepin-3-yl)-benzamide]	0.5	100	100	
COc1ccc(Cl)cc1C(=O)NC1N=C(c2ccccc2)c2ccccc2NC1=O (stereo not drawn) [Example 91, 5-chloro-2-methoxy-N-(2-oxo-5-phenyl-2,3-dihydro-1H-benzo[e][1,4]diazepin-3-yl)benzamide]	0.3	100	100	
COc1ccc(F)cc1C(=O)NC1N=C(c2ccccc2)c2ccccc2NC1=O (stereo not drawn) [Example 92, 5-Fluoro-2-methoxy-N-(2-oxo-5-phenyl-2,3-dihydro-1H-benzo[e][1,4]diazepin-3-yl)-benzamide]	< 0.3	100	100	
COc1cc([N+](=O)[O-])ccc1C(=O)NC1N=C(c2ccccc2)c2ccccc2NC1=O (stereo not drawn) [Example 93, 2-Methoxy-4-nitro-N-(2-oxo-5-phenyl-2,3-dihydro-1H-benzo[e][1,4]diazepin-3-yl)-benzamide]	< 0.3	100	>100	
COc1ccc([N+](=O)[O-])c(C(=O)NC2N=C(c3ccccc3)c3ccccc3NC2=O)c1 (stereo not drawn) [Example 94, 5-Methoxy-2-nitro-N-(2-oxo-5-phenyl-2,3-dihydro-1H-benzo[e][1,4]diazepin-3-yl)-benzamide]	1.5	>100	>100	
COc1cc(C(=O)NC2N=C(c3ccccc3)c3ccccc3NC2=O)ccc1[N+](=O)[O-] (stereo not drawn) [Example 95, 3-Methoxy-4-nitro-N-(2-oxo-5-phenyl-2,3-dihydro-1H-benzo[e][1,4]diazepin-3-yl)-benzamide]	1.5	100	>100	
COc1ccccc1CCC(=O)NC1N=C(c2ccccc2)c2ccccc2NC1=O (stereo not drawn) [Example 96, 3-(2-Methoxy-phenyl)-N-(2-oxo-5-phenyl-2,3-dihydro-1H-benzo[e][1,4]diazepin-3-yl)propionamide]	5	>100	>100	
COc1cccc(CCC(=O)NC2N=C(c3ccccc3)c3ccccc3NC2=O)c1 (stereo not drawn) [Example 97, 3-(3-Methoxy-phenyl)-N-(2-oxo-5-phenyl-2,3-dihydro-1H-benzo[e][1,4]diazepin-3-yl)-propionamide]	5	>100	>100	
COc1ccc(CCC(=O)NC2N=C(c3ccccc3)c3ccccc3NC2=O)cc1 (stereo not drawn) [Example 98, 3-(4-Methoxy-phenyl)-N-(2-oxo-5-phenyl-2,3-dihydro-1H-benzo[e][1,4]diazepin-3-yl)-propionamide]	5	>100	>100	
COc1ccccc1C(=O)NC1N=C(c2cccc(Cl)c2)c2ccccc2NC1=O (stereo not drawn) [Example 99, N-[5-(3-Chloro-phenyl)-2-oxo-2,3-dihydro-1H-benzo[e][1,4]diazepin-3-yl]-2-methoxy-benzamide]	1	100	>100	
COc1ccc(C(=O)NC2N=C(c3ccc(C(F)(F)F)cc3)c3ccccc3NC2=O)cc1 (stereo not drawn) [Example 103, 4-Methoxy-N-[2-oxo-5-(4-trifluoromethyl-phenyl)-2,3-dihydro-1H-benzo[e][1,4]diazepin-3-yl]-benzamide]	7	>100	30	
COc1ccccc1C(=O)NC1N=C(c2cccc(C(F)(F)F)c2)c2ccccc2NC1=O (stereo not drawn) [Example 104, 2-Methoxy-N-[2-oxo-5-(3-trifluoromethyl-phenyl)-2,3-dihydro-1H-benzo[e][1,4]diazepin-3-yl]-benzamide]	5	>100	>100	
COc1ccc(C(=O)NC2N=C(c3cccc(C(F)(F)F)c3)c3ccccc3NC2=O)cc1 (stereo not drawn) [Example 105]		>100	>100	9
CCOc1ccccc1C(=O)NC1N=C(c2ccccc2)c2ccccc2NC1=O (stereo not drawn) [Example 106, 2-Ethoxy-N-(2-oxo-5-phenyl-2,3-dihydro-1H-benzo[e][1,4]diazepin-3-yl)-benzamide]	0.7	>100	>100	
COc1ccc(C(=O)NC2N=C(c3ccccc3)c3ccccc3NC2=O)c(OC)c1 (stereo not drawn) [Example 107, 2,4-Dimethoxy-N-(2-oxo-5-phenyl-2,3-dihydro-1H-benzo[e][1,4]diazepin-3-yl)-benzamide]	< 0.3	60	60	
COc1ccc(Br)c(C(=O)NC2N=C(c3ccccc3)c3ccccc3NC2=O)c1 (stereo not drawn) [Example 108, 2-Bromo-5-methoxy-N-(2-oxo-5-phenyl-2,3-dihydro-1H-benzo[e][1,4]diazepin-3-yl)-benzamide]	2	>100	>100	
COc1cccc(C2=NC(NC(=O)c3ccccc3OC)C(=O)Nc3ccccc32)c1 (stereo not drawn) [Example 109, 2-Methoxy-N-[5-(3-methoxy-phenyl)-2-oxo-2,3-dihydro-1H-benzo[e][1,4]diazepin-3-yl]-benzamide]	2	50	100	
COc1ccccc1C(=O)NC1N=C(c2ccccc2)c2ccc(C)cc2NC1=O (stereo not drawn) [Example 111, 2-Methoxy-N-(8-methyl-2-oxo-5-phenyl-2,3-dihydro-1H-benzo[e][1,4]diazepin-3-yl)-benzamide]	3	>100	>100	
CS(=O)(=O)c1ccc(C(=O)NC2N=C(c3ccccc3)c3ccccc3NC2=O)c(Cl)c1 (stereo not drawn) [Example 112, 2-Chloro-4-methanesulfonyl-N-(2-oxo-5-phenyl-2,3-dihydro-1H-benzo[e][1,4]diazepin-3-yl)-benzamide]	1.5	>100	>100	
CN(C)c1ccccc1C(=O)NC1N=C(c2ccccc2)c2ccccc2NC1=O (stereo not drawn) [Example 113, 2-Dimethylamino-N-(2-oxo-5-phenyl-2,3-dihydro-1H-benzo[e][1,4]diazepin-3-yl)-benzamide]	1.5	>100	>100	
